Like-named read-outs stand apart in the source and are kept apart here.
Columns and labels:
[1] = Crystallinity by X-ray diffraction, microscopy; type: physicochemical; details: X-ray diffraction, microscopy
[2] = Pharmacokinetics, single and multiple dose applications in healthy volunteers; type: in vivo, humans
Description: The plasma concentrations in humans exceeded those reached in in vivo and in vitro experiments sufficient to effectively treat herpes simplex virus infections in various animal models and to prevent viral replication in cell culture.

[3] = Exposure in 26-week repeated dose toxicity study (mesylate monohydrate); type: in vivo; details: rats; for Cmax / AUC(0-t): rat, in vivo; for AUC(0-t): read-out: AUC(0-24); for Exposure ratio 26-wts/13-wts. AUC(0-24) / Exposure ratio 26-wts/13-wts. Cmax: day 1, mesylate monohydrate vs free base; for Exposure ratio 26-wts/13-wts AUC(0-24) / Exposure ratio 26-wts/13-wts Cmax: week 13, mesylate monohydrate vs free base
Procedure: The exposure of rats to N-[5-(aminosulfonyl)-4-methyl-1,3-thiazol-2-yl]-N-methyl-2-[4-(2-pyridinyl)phenyl]acetamide in a repeated dose 13-week toxicity study performed with the free base N-[5-(aminosulfonyl)-4-methyl-1,3-thiazol-2-yl]-N-methyl-2-[4-(2-pyridinyl)phenyl]acetamide (free base) was compared to the exposures observed in a 26-week repeated dose toxicity study performed with the mesylate monohydrate. In both studies, the test items were administered as 0.5% (w/v) tylose suspensions, and the concentrations were adjusted to the equivalents of free base N-[5-(aminosulfonyl)-4-methyl-1,3-thiazol-2-yl]-N-methyl-2-[4-(2-pyridinyl)phenyl]acetamide.

Long term stability = type: physicochemical; details: in comparison to the free base form
[4] = Water solubility, solubility screening; details: water
herpes simplex viruses = assay: Activity against herpes viruses; details: mainly herpes simplex viruses
[5] = Thermal analysis and polymorphic stability (DSC, TGA); type: physicochemical
Procedure: Polymorphism refers to the ability of a solid material to exist in more than one crystal structure or solid form.
Upon mild heating (about 50° C. to 60° C.), the water content is reduced which would make these salts and the free base form extremely difficult to handle and to process during production and formulation. In contrast the hydrate of the mono mesylate salt is thermally stable and polymorphic stable at much higher temperatures of considerably above 100° C. as judged by TGA.
Moreover, exactly one mol equivalent water is incorporated into the crystal structure wherein the hydrogen atoms of the water molecule form hydrogen bridges with oxygen atoms of two different mesylate molecules. This well-defined position in the crystal lattice (see FIG. 3) is verified by the fact that water is released from the crystal only at high temperature, starting at 160° C.

[6] = Stability to dissociation: stirring for one week at room temperature
[7] = Stability to decomposition: storage at 90° C. for one week
[8] = female, 10 mg/kg/day, F, 10 mg/kg/day, day 1, 26-week toxicity study
[9] = female, 50 mg/kg/day, F, 50 mg/kg/day, day 1, 26-week toxicity study
[10] = female, 250 mg/kg/day, F, 250 mg/kg/day, day 1, 26-week toxicity study
[11] = male, 10 mg/kg/day, M, 10 mg/kg/day, day 1, 26-week toxicity study
[12] = male, 50 mg/kg/day, M, 50 mg/kg/day, day 1, 26-week toxicity study
[13] = male, 250 mg/kg/day, M, 250 mg/kg/day, day 1, 26-week toxicity study
[14] = mesylate monohydrate vs free base, 50 and 250 mg/kg/day

SMILES: CS(=O)(=O)O.Cc1nc(N(C)C(=O)Cc2ccc(-c3ccccn3)cc2)sc1S(N)(=O)=O.O [Mesylate monohydrate, N-[5-(aminosulfonyl)-4-methyl-1,3-thiazol-2-yl]-N-methyl-2-[4-(2-pyridinyl)-phenyl]acetamide methanesulfonate monohydrate]
- Crystallinity [1]: +
- Plasma half lives [2]: long lasting half lives
- Cmax [3, 8]: 17.2 µg/mL
- AUC(0-t) [3, 8]: 175 µg·h/mL
- AUC(0-t) ([3]; female, 10 mg/kg/day, F, 10 mg/kg/day, week 13, 26-week toxicity study): 321 µg·h/mL
- Cmax ([3]; female, 10 mg/kg/day, F, week 13, 26-week toxicity study): 26 µg/mL
- Cmax [3, 9]: 77.8 µg/mL
- AUC(0-t) [3, 9]: 913 µg·h/mL
- AUC(0-t) ([3]; female, 50 mg/kg/day, F, 50 mg/kg/day, week 13, 26-week toxicity study): 1210 µg·h/mL
- Cmax ([3]; female, 50 mg/kg/day, F, week 13, 26-week toxicity study): 106 µg/mL
- Cmax [3, 10]: 146 µg/mL
- AUC(0-t) [3, 10]: 2470 µg·h/mL
- AUC(0-t) ([3]; female, 250 mg/kg/day, F, 250 mg/kg/day, week 13, 26-week toxicity study): 3580 µg·h/mL
- Cmax ([3]; female, 250 mg/kg/day, F, week 13, 26-week toxicity study): 217 µg/mL
- Cmax [3, 11]: 16.9 µg/mL
- AUC(0-t) [3, 11]: 119 µg·h/mL
- AUC(0-t) ([3]; male, 10 mg/kg/day, M, 10 mg/kg/day, week 13, 26-week toxicity study): 227 µg·h/mL
- Cmax ([3]; male, 10 mg/kg/day, M, week 13, 26-week toxicity study): 21.8 µg/mL
- Cmax [3, 12]: 70.3 µg/mL
- AUC(0-t) [3, 12]: 634 µg·h/mL
- AUC(0-t) ([3]; male, 50 mg/kg/day, M, 50 mg/kg/day, week 13, 26-week toxicity study): 959 µg·h/mL
- Cmax ([3]; male, 50 mg/kg/day, M, week 13, 26-week toxicity study): 74.7 µg/mL
- Cmax [3, 13]: 134 µg/mL
- AUC(0-t) [3, 13]: 1980 µg·h/mL
- AUC(0-t) ([3]; male, 250 mg/kg/day, M, 250 mg/kg/day, week 13, 26-week toxicity study): 2780 µg·h/mL
- Cmax ([3]; male, 250 mg/kg/day, M, week 13, 26-week toxicity study): 169 µg/mL
- Exposure ratio 26-wts/13-wts. AUC(0-24) ([3]; F, 10 mg/kg/day): 1.1
- Exposure ratio 26-wts/13-wts. Cmax ([3]; F, 10 mg/kg/day): 1.1
- Exposure ratio 26-wts/13-wts AUC(0-24) ([3]; F, 10 mg/kg/day): 1.5
- Exposure ratio 26-wts/13-wts Cmax ([3]; F, 10 mg/kg/day): 1.0
- Exposure ratio 26-wts/13-wts. AUC(0-24) ([3]; F, 50 mg/kg/day): 2.2
- Exposure ratio 26-wts/13-wts. Cmax ([3]; F, 50 mg/kg/day): 2.2
- Exposure ratio 26-wts/13-wts AUC(0-24) ([3]; F, 50 mg/kg/day): 2.6
- Exposure ratio 26-wts/13-wts Cmax ([3]; F, 50 mg/kg/day): 2.6
- Exposure ratio 26-wts/13-wts. AUC(0-24) ([3]; F, 250 mg/kg/day): 2.6
- Exposure ratio 26-wts/13-wts. Cmax ([3]; F, 250 mg/kg/day): 2.1
- Exposure ratio 26-wts/13-wts AUC(0-24) ([3]; F, 250 mg/kg/day): 3.1
- Exposure ratio 26-wts/13-wts Cmax ([3]; F, 250 mg/kg/day): 2.6
- Exposure ratio 26-wts/13-wts. AUC(0-24) ([3]; M, 10 mg/kg/day): 1.4
- Exposure ratio 26-wts/13-wts. Cmax ([3]; M, 10 mg/kg/day): 1.3
- Exposure ratio 26-wts/13-wts AUC(0-24) ([3]; M, 10 mg/kg/day): 1.7
- Exposure ratio 26-wts/13-wts Cmax ([3]; M, 10 mg/kg/day): 1.5
- Exposure ratio 26-wts/13-wts. AUC(0-24) ([3]; M, 50 mg/kg/day): 2.6
- Exposure ratio 26-wts/13-wts. Cmax ([3]; M, 50 mg/kg/day): 2.3
- Exposure ratio 26-wts/13-wts AUC(0-24) ([3]; M, 50 mg/kg/day): 2.9
- Exposure ratio 26-wts/13-wts Cmax ([3]; M, 50 mg/kg/day): 2.5
- Exposure ratio 26-wts/13-wts. AUC(0-24) ([3]; M, 250 mg/kg/day): 3.5
- Exposure ratio 26-wts/13-wts. Cmax ([3]; M, 250 mg/kg/day): 2.5
- Exposure ratio 26-wts/13-wts AUC(0-24) ([3]; M, 250 mg/kg/day): 4.2
- Exposure ratio 26-wts/13-wts Cmax ([3]; M, 250 mg/kg/day): 2.7
- Increase in extent of exposure, AUC [3, 14]: ≤ 4 fold
- Increase in extent of exposure, Cmax [3, 14]: up to 2.7 fold
- Long term stability (Long term stability): superior
- solubility [4]: 1380 µg/mL
- Activity against herpes viruses (herpes simplex viruses): highly active
- Thermal stability of hydrate [5]: stable
- DSC ([5]; Differential Scanning Calorimetry): loss of water before melting
- TGA ([5]; Thermogravimetric Analysis): 4.3%
- Temperature at which the hydrate is thermally and polymorphic stable ([5]; as judged by TGA): above 100 °C
- Temperature at which water is released from the crystal ([5]; starting temperature): ≥ 160 °C
- Stability to dissociation [6]: ++
- Stability to decomposition [7]: ++
